Measured values taken from ChEMBL document CHEMBL3112578, “Synthesis and haemolytic activity of novel salts made of nicotine alkaloids and bile acids” (Bioorg Med Chem Lett, 2014).
Values after ≈ are worked out from the molar mass of the structure shown.

What was measured:
[1] = Hemolytic activity in human erythrocytes assessed as release of hemoglobin at 0.19 mg/mL after 60 mins relative to control; type: ADME, cell-based, Erythrocyte; settings: read-out: Activity
[2] = Hemolytic activity in human erythrocytes assessed as release of hemoglobin after 60 mins; type: ADME, cell-based, Erythrocyte; settings: 1 h; for IC50: Homo sapiens, Erythrocyte; for Activity: human, erythrocyte
[3] = Hemolytic activity in human erythrocytes assessed as increase in cell permeability up to 1 mg/mL after 60 mins; type: ADME, cell-based; settings: erythrocyte, 1 h
[4] = Hemolytic activity in human erythrocytes assessed as release of hemoglobin at 0.67 mg/mL after 60 mins relative to control; type: ADME, cell-based, Erythrocyte; settings: read-out: Activity
[5] = Hemolytic activity in human erythrocytes assessed as release of hemoglobin at 0.00001 mg/mL after 60 mins relative to control; type: ADME, cell-based, Erythrocyte; settings: read-out: Activity
[6] = Hemolytic activity in human erythrocytes assessed as induction of echinocytic shape alteration at hemolysis start concentration after 60 mins by SEM analysis; type: cell-based; settings: erythrocyte, 1 h
[7] = Hemolytic activity in human erythrocytes assessed as induction of spheroechinocytic shape alteration at hemolysis start concentration after 60 mins by SEM analysis; type: cell-based; settings: erythrocyte, 1 h
[8] = Hemolytic activity in human erythrocytes assessed as release of hemoglobin at 0.63 mg/mL after 60 mins relative to control; type: ADME, cell-based, Erythrocyte; settings: read-out: Activity
[9] = Hemolytic activity in human erythrocytes assessed as induction of stomatocytic shape alteration at hemolysis start concentration after 60 mins by SEM analysis; type: cell-based; settings: erythrocyte, 1 h
[10] = Hemolytic activity in human erythrocytes assessed as release of hemoglobin at 0.006 mg/mL after 60 mins relative to control; type: ADME, cell-based, Erythrocyte; settings: read-out: Activity
[11] = Hemolytic activity in human erythrocytes assessed as release of hemoglobin at 0.007 mg/mL after 60 mins relative to control
[12] = Hemolytic activity in human erythrocytes assessed as discocytic shape up to 1 mg/mL after 60 mins by SEM analysis; type: ADME, cell-based; settings: erythrocyte, 1 h
[13] = Hemolytic activity in human erythrocytes assessed as release of hemoglobin at 0.75 mg/mL after 60 mins relative to control; type: ADME, cell-based, Erythrocyte; settings: read-out: Activity
[14] = Hemolytic activity in human erythrocytes assessed as release of hemoglobin at 0.0001 mg/mL after 60 mins relative to control; type: ADME, cell-based, Erythrocyte; settings: read-out: Activity
[15] = Hemolytic activity in human erythrocytes assessed as release of hemoglobin at 0.17 mg/mL after 60 mins relative to control; type: ADME, cell-based, Erythrocyte; settings: read-out: Activity

| SMILES | IC50 [2] [µg/mL] | Activity [2] | Activity [3] | Activity [9] | other results |
| --- | --- | --- | --- | --- | --- |
| CN1C(=[Se])CC[C@H]1c1cccnc1.C[C@H](CCC(=O)O)[C@H]1CC[C@H]2[C@@H]3CC[C@@H]4C[C@H](O)CC[C@]4(C)[C@H]3C[C@H](O)[C@]12C | 610 | Dose-dependent effect |  |  | hemolysis at 1 h, 0.19 mg/mL [1]: 5% |
| CN1C(=S)CC[C@H]1c1cccnc1.C[C@H](CCC(=O)O)[C@H]1CC[C@H]2[C@@H]3CC[C@@H]4C[C@H](O)CC[C@]4(C)[C@H]3C[C@H](O)[C@]12C |  | Dose-dependent effect | Non-toxic |  | hemolysis at 1 h, 0.67 mg/mL [4]: 5% |
| CN1C(=S)CC[C@H]1c1cccnc1.C[C@H](CCC(=O)O)[C@H]1CC[C@H]2[C@@H]3CC[C@@H]4C[C@H](O)CC[C@]4(C)[C@H]3CC[C@]12C | 40 | Dose-dependent effect |  |  | hemolysis at 1 h, 1e-05 mg/mL [5]: 5%; Activity [6]: Toxic; Activity [7]: Toxic |
| CN1CCC[C@H]1c1cccnc1.C[C@H](CCC(=O)O)[C@H]1CC[C@H]2[C@@H]3[C@H](O)C[C@@H]4C[C@H](O)CC[C@]4(C)[C@H]3C[C@H](O)[C@]12C |  |  | Non-toxic |  |  |
| CN1CCC[C@H]1c1cccnc1.C[C@H](CCC(=O)O)[C@H]1CC[C@H]2[C@@H]3CC[C@@H]4C[C@H](O)CC[C@]4(C)[C@H]3C[C@H](O)[C@]12C |  | Dose-dependent effect | Non-toxic | Toxic | hemolysis at 1 h, 1e-05 mg/mL [5]: 12.4%; hemolysis at 1 h, 0.63 mg/mL [8]: 5% |
| CN1C(=[Se])CC[C@H]1c1cccnc1.C[C@H](CCC(=O)O)[C@H]1CC[C@H]2[C@@H]3CC[C@@H]4C[C@H](O)CC[C@]4(C)[C@H]3CC[C@]12C | 180 | Dose-dependent effect |  |  | hemolysis at 1 h, 0.006 mg/mL [10]: 5%; Activity [6]: Toxic |
| CN1CCC[C@H]1c1cccnc1.C[C@H](CCC(=O)O)[C@H]1CC[C@H]2[C@@H]3CC[C@@H]4C[C@H](O)CC[C@]4(C)[C@H]3CC[C@]12C | 200 | Dose-dependent effect |  | Toxic | hemolysis at 1 h, 0.007 mg/mL [11]: 5%; hemolysis at 1 h, 1e-05 mg/mL [5]: 16.7% |
| CN1C(=[Se])CC[C@H]1c1cccnc1 |  |  | Non-toxic |  | Activity [12]: Non-toxic |
| CN1C(=S)CC[C@H]1c1cccnc1 |  |  | Non-toxic |  | Activity [12]: Non-toxic |
| C[C@H](CCC(=O)O)[C@H]1CC[C@H]2[C@@H]3[C@H](O)C[C@@H]4C[C@H](O)CC[C@]4(C)[C@H]3C[C@H](O)[C@]12C [CHOLIC ACID] |  |  | Non-toxic |  | hemolysis at 1 h, 0.75 mg/mL [13]: 5% |
| C[C@H](CCC(=O)O)[C@H]1CC[C@H]2[C@@H]3CC[C@@H]4C[C@H](O)CC[C@]4(C)[C@H]3CC[C@]12C [LITHOCHOLIC ACID] | 9 (≈ 23.9 µM) |  |  | Toxic | hemolysis at 1 h, 0.0001 mg/mL [14]: 5% |
| CN1CCC[C@H]1c1cccnc1 [NICOTINE] |  |  | Non-toxic |  | Activity [12]: Non-toxic |
| C[C@H](CCC(=O)O)[C@H]1CC[C@H]2[C@@H]3CC[C@@H]4C[C@H](O)CC[C@]4(C)[C@H]3C[C@H](O)[C@]12C [SODIUM DEOXYCHOLATE] |  |  |  | Toxic | hemolysis at 1 h, 0.17 mg/mL [15]: 5% |
